Results taken from US20250099411A1, “Methods of Treatment of Inflammation Related Conditions Using Pluripotent Anti-Inflammatory and Metabolic Modulators” (Institut Pasteur de Montevideo, priority 2018, published 2025).

How the values were obtained:
[1] = test system: Nrf2/Keap I-dependent gene expression; assay: Nrf2/Keap I-dependent phase two enzyme gene expression (HO-I, GCLM, NQO I qPCR) in Hep G2 cells; type: cell-based; conditions: Hep G2, five hours, SANA 0.1 mM, Salicylic Acid 0.2 and 5 mM
Description: FIGS. 6 and 7 show induction of phase two enzymes Nrf2/Keap I-dependent gene expression by SANA but not by SA Hep G2 cells were treated with SANA (0.1 mM) or Salicylic Acid (0.2 and 5 mM) for five hours. mRNA was extracted from the cells and was measured HO-I, GCLM and NQO I gene expression by qPCR.

inflammasome = assay: Inflammasome inhibition (IL-lb ELISA) in THP-1 cells differentiated into macrophages, LPS then ATP; type: cell-based, human; conditions: for inhibition of the inflammasome (IL-lb), applied with the second signal: together with ATP (5 mM, 45 minutes) after LPS, SANA 0.05-0.25 mM, SA 0.25 mM; for inhibition of the inflammasome (IL-lb), applied with the first signal: together with LPS (250 ng/ml, 3 hs.), then ATP 5 mM 45 minutes, SANA 0.05-0.25, SA 0.25 mM
Description: In FIGS. 8 and 9 show the inhibition of inflammasome in THP-1 cells differentiated into macrophages (PMA 200 nM, 48 hs.) by SANA but not by SA when applied together with the first (FIG. 8) or the second (FIG. 9) signal. In FIG. 8 cells were treated with Salicylic acid (0.25 mM) or SANA (0.05; 0.125 and 0.25) together with LPS stimulation. The cells were stimulated with LPS (250 ng/ml, 3 hs.) and then with ATP (5 mM, 45 minutes). Supernatant was collected and IL-lb measured by ELISA Cell viability was assessed by MTT assay. […] In FIG. 9 THP-1 cells were differentiated into macrophages with PMA (200 nM, 48 hs.). Cells were stimulated with LPS (250 ng/ml, 3 hs.) and then with ATP (5 mM, 45 minutes). Together with ATP treatment, cells were then treated with NAT×ME (10 uM), Salicylic acid (0.25 mM) or SANA (0.05; 0.125 and 0.25 mM). Supernatant was collected and IL-lb secretion was measured by ELISA Cell viability was assessed by the MTT assay.

[2] = Stopped-flow kinetics of the reaction with BME; type: physicochemical; conditions: 25° C., triplicate, BME 0.54-2.73 mM, absorbance at 260 nm
Description: In FIG. 2, it is shown that the reaction between SANA and BME was determined to be a second order rate constant. Stopped-flow kinetic measurements were performed using an Rx 2000 stopped flow analyzer (Applied Photophysics). Mixtures of 150 μL NATx0 (25 μM) and solutions of BME at 0.54 mM, 1.09 mM, 1.64 mM, 2.18 mM, and 2.73 mM concentrations.
The reaction was monitored by following the absorbance at 260 nm and plots were fitted to a simple exponential decay function using Originlab software (version 8.0.). The observed pseudo first order constant at each concentration of BME was extracted from the equation and plotted against the concentration of BME. The second rate constant of the reaction is derived from the slope of the curve and was 182±6 M·^1s·^1. All experiments were carried out at 25° C. by triplicate.

11-lb secretion = assay: LPS-induced 11-lb secretion into the peritoneum in vivo
[3] = Glucose tolerance test in HFD obese mice; type: in vivo; conditions: mice under HFD up to 7 months, 100 mg/kg gavage every day during four weeks
Description: Mice under HFD for up to 7 months (mean weight around 40 gr.) were treated with SANA (100 mg/kg; gavage) or phosphate buffer (control) every day during four weeks. The glucose tolerance test were run as per well-known standard procedures.

GAPDH = GAPDH (Homo sapiens, UniProt P04406); assay: GAPDH activity; type: biochemical
GAPDH, sequence (P04406 whole entry, species assumed): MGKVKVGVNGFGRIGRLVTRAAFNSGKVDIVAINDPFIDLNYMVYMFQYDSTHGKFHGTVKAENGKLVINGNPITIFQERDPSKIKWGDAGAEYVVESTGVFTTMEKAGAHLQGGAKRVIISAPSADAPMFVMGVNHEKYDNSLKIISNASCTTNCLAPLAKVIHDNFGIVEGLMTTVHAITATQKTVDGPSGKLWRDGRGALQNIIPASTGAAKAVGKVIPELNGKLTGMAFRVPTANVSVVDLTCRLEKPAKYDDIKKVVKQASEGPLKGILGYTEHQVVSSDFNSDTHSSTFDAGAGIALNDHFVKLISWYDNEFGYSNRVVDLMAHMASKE

[4] = Skin allograft rejection, male tail skin grafted onto female mice; type: in vivo, C57BL/6 mice; conditions: 100 mg/kg oral gavage daily, day -1 to day 15
Description: C57BL/6 female mice were grafted with skin from the tails of C57BL/6 male mice. The skin graft is a small'square (1 cm^2 and it was implanted onto the left subscapular region of the female mice. From one day before the transplantation until 15 days after it, the mice were treated daily with SANA (100 mg/kg, by oral gavage; SANA group) or vehicle (Control group). The vehicle used was a solution of Carboxy-Methyl-cellulose 0.5% m/v and Tween 80 0.5% v/v. At the end of the 15th day of administration, allografts were checked every 48/72 hours to assess the condition of the grafted skin. Rejection was diagnosed clinically when the allograft lost more than 50% of its size and/or more than I 0% of allograft was necrotic.
The study followed the protocol described above for FIG. I, but further included a Salicylate group. C57BL/6 female mice were grafted with skin from the tails of C57BL/6 male mice. The skin graft is a small square (1 cm^2 and it was implanted onto the left subscapular region of the female mice. From one day before the transplantation until 15 days after it, the mice were treated daily with Salicylate (100 mg/kg, by oral gavage; Salicylate group), SANA (100 mg/kg, by oral gavage; SANA group) or vehicle (Control group). The vehicle used was a solution of
Carboxy-Methyl-cellulose 0.5% m/v and Tween 80 0.5% v/v. […]

[5] = Body weight of mice fed a high-fat diet; type: in vivo
Text: (§1) While not wishing to be bound by theory, thermogenesis and weight loss are a result of AMPK activation together with white adipose tissue and mitochondrial uncoupling. […] SANA's beneficial effects also include reducing adverse effects related to obesity. […] FIGS. 22 and 23, compare the body temperatures of mice on normal diets (“ND”), HFD, and HFD with administration of SANA.

[6] = Magnetic resonance imaging (MRI) of fat content; type: in vivo; conditions: mice
Text: as §1

[7] = Thermogenesis / body temperature of mice on HFD; type: in vivo
Text: as §1

[8] = Thermogenesis and weight loss in mice on a normal diet; type: in vivo
Text: as §1

SMILES	induction of phase two enzymes Nrf2/Keap I-dependent gene expression [1]	inhibition of the inflammasome (IL-lb), applied with the second signal (inflammasome)	inhibition of the inflammasome (IL-lb), applied with the first signal (inflammasome)	second rate constant of the reaction with BME [2] [M·^1s·^1]	LPS-induced 11-lb secretion into the peritoneum (11-lb secretion)	insulin resistance (glucose tolerance test) [3]	GAPDH activity (GAPDH)	skin allograft rejection compared to salicylic acid [4]	survival of grafted skin versus control group [4]	rate of weight gain ([5]; mice fed high-fat diet, 29 weeks)	dose dependence of the effect on obesity ([5]; mouse, in vivo)	fat content (MRI) [6]	body temperature ([7]; HFD with SANA versus ND mice and HFD mice)	thermogenesis ([7]; mouse, in vivo)	thermogenesis [8]	weight loss [8]
O=C(O)c1ccccc1O [SA, salicylic acid, reference compound]	not by SA	cannot inhibit	cannot inhibit													
O=C(O)c1cc(/C=C/[N+](=O)[O-])ccc1O [SANA, 2-hydroxy-5-(2-nitroethenyl)benzoic acid]	induction	potent inhibitor	potent inhibitor	182±6	decreases	reverses insulin resistance	does not inhibit	significant reduction in skin allograft rejection	prolonged survival of grafted skin	reduced the rate of weight gain	dose response effect	induces loss of fat content	higher body temperatures than that of ND mice and HFD mice	inducing thermogenesis	does not induce	does not induce
